Measurements taken from EP2439195B1, “NAPHTHALENE CARBOXAMIDE DERIVATIVES AS INHIBITORS OF PROTEIN KINASE AND HISTONE DEACETYLASE, PREPARATION METHODS AND USES THEREOF” (Shenzhen Chipscreen Biosciences, Ltd., priority 2009, dated 2010).

What was measured:
Type in all cases: in vivo
human A549 lung cancer = assay: Nude mice tumor transplanted from human A549 lung cancer (Example 51); conditions: for TGI (%): tumor growth inhibition
Description: Then the cultured A549 human lung cancer cells were implanted into the armpit of 50 mice. […] Each group had 8 mice. One group was treated with vehicle. One group was treated with Sutent, the positive control drug. […] Each group was dosed orally once a day for 24 days. Tumor volumes along with body weights were recorded twice per week. On the next day after 24 doses, the mice were killed, and tumors were weighed. The tumor growth inhibition of each group was calculated using the following formula: {[(the average tumor weight of control group)-(the average tumor weight of test group)]/(the average tumor weight of control group)}×100%.

human HCT-8 colon cancer [1] = assay: Nude mice tumor transplanted from human HCT-8 colon cancer (Example 52); conditions: for Tumor weight: killed after 20 doses; for TGI (%): tumor growth inhibition
Description: Female nu/nu mice of 18∼20g were fed by normal diet for 3 days. Then the cultured HCT-8 human colon cancer cells were implanted into the armpit of 50 mice. […] Each group had 8 mice. One group was treated with vehicle. One group was treated with Sutent, the positive control drug. […] Each group was dosed orally once a day for 24 days. Tumor volumes along with body weights were recorded twice per week. On the next day after 20 doses, the mice were killed, and tumors were weighed. The tumor growth inhibition of each group was calculated using the following formula: {[([…])} × 100%. [formula] The experimental results are shown in Table 6 and Figure 2.

[2] = test system: SSMC7721 human liver cancer cells; assay: Nude mice tumor transplanted from human SSMC7721 liver cancer (Example 53); conditions: for TGI (%): tumor growth inhibition
Description: Female nu/nu mice of 18∼20g were fed by normal diet for 3 days. Then the cultured SSMC7721 human liver cancer cells were implanted into the armpit of 50 mice. […] One group was treated with vehicle. One group was treated with Sutent, the positive control drug. […] Each group was dosed orally once a day for 24 days. […] The tumor growth inhibition of each group was calculated using the following formula: {[([…])} × 100%. [formula] The experimental results are shown in Table 7 and Figure 3.

human HCT-8 colon cancer [3] = assay: Nude mice tumor transplanted from human HCT-8 colon cancer (Example 55); conditions: 20 days; for TGI (%): tumor growth inhibition
Description: Female nu/nu mice of 18∼20g were fed by normal diet for 3 days. Then the cultured HCT-8 human colon cancer cells were implanted into the armpit of 50 mice. […] One group was treated with vehicle. One group was treated with Sutent, the positive control drug. Two groups were treated with compound 33 at different concentrations. The other two groups were treated with compound 37 at different concentrations. Compound 33 was administered twice a day with an interval of 6 hours. For other groups, administration was performed once a day. Each group was dosed orally for 20 days. […] The tumor growth inhibition of each group was calculated using the following formula: {[(the average tumor weight of control group)-(the average tumor weight of test group)]/(the average tumor weight of control group)} × 100%. [formula] The experimental results are shown in Table 9 and Figure 5.

[4] = test system: human SSMC7721 liver cancer; assay: Nude mice tumor transplanted from human SSMC7721 liver cancer (Example 56); conditions: for TGI (%): tumor growth inhibition
Description: Female nu/nu mice of 18∼20g were fed by normal diet for 3 days. Then the cultured SSMC7721 human liver cancer cells were implanted into the armpit of 50 mice. […] Each group had 8 mice. One group was treated with vehicle. One group was treated with Sutent, the positive control drug. Two groups were treated with compound 33 at different concentrations. The other two groups were treated with compound 37 at different concentrations. Each group was dosed orally once a day for 30 days. […] The tumor growth inhibition of each group was calculated using the following formula: {[(the average tumor weight of control group)-(the average tumor weight of test group)]/(the average tumor weight of control group)} × 100%. [formula] The experimental results are shown in Table 10 and Figure 6. Table10

[5] = 5 mg/kg orally once a day for 24 days
[6] = 10 mg/kg orally once a day for 24 days
[7] = 20 mg/kg orally once a day for 24 days
[8] = 40 mg/kg orally once a day for 24 days
[9] = 2.5 mg/kg orally once a day for 24 days
[10] = 30x2 mg/kg orally twice a day with an interval of 6 hours
[11] = 60x2 mg/kg orally twice a day with an interval of 6 hours
[12] = 30 mg/kg orally once a day for 30 days
[13] = 60 mg/kg orally once a day for 30 days

## COc1ccc2c(Oc3ccc4c(C(=O)Nc5ccccc5N)cccc4c3)ccnc2c1 [Compound 31, N-(2-aminophenyl)-6-(7-methoxyquinolin-4-yloxy)-1-naphthamide]
Human A549 lung cancer; [5]
  Tumor weight: 2.20 ± 0.57 g
  Body weight (g) end: 24.6 ± 1.3 g
  Body weight (g) start: 21.1 ± 0.6 g
Human A549 lung cancer; [6]
  Tumor weight: 2.13 ± 0.51 g
  Body weight (g) end: 25.1 ± 1.3 g
  Body weight (g) start: 19.9 ± 1.3 g
Human A549 lung cancer; [7]
  Tumor weight: 1.50 ± 0.41 g
  Body weight (g) end: 24.2 ± 0.7 g
  Body weight (g) start: 20.6 ± 1.1 g
  TGI (%): 64.3%
Human A549 lung cancer; [8]
  Tumor weight: 1.06 ± 0.54 g
  Body weight (g) end: 22.6 ± 2.4 g
  Body weight (g) start: 20.0 ± 0.9 g
  TGI (%): 74.8%
Human HCT-8 colon cancer [1]; 2.5 mg/kg orally once a day
  Body weight (g) end: 24.5 ± 1.1 g
  Tumor weight: 2.18 ± 1.28 g
  Body weight (g) start: 20.3 ± 0.8 g
  TGI (%): 54.5%
Human HCT-8 colon cancer [1]; 5 mg/kg orally once a day
  Body weight (g) end: 24.8 ± 1.5 g
  Tumor weight: 0.78 ± 0.25 g
  Body weight (g) start: 21.6 ± 1.4 g
  TGI (%): 83.8%
Human HCT-8 colon cancer [1]; 10 mg/kg orally once a day
  Body weight (g) end: 23.7 ± 0.8 g
  Tumor weight: 0.46 ± 0.15 g
  Body weight (g) start: 20.7 ± 1.1 g
  TGI (%): 90.3%
Human HCT-8 colon cancer [1]; 20 mg/kg orally once a day
  Body weight (g) end: 22.5 ± 1.6 g
  Tumor weight: 0.19 ± 0.06 g
  Body weight (g) start: 20.5 ± 1.3 g
  TGI (%): 96.1%
[2]; [9]
  Tumor weight: 1.63 ± 0.70 g
  Body weight (g) end: 23.2 ± 2.1 g
  Body weight (g) start: 20.1 ± 0.9 g
  TGI (%): 51.7%
[2]; [5]
  Tumor weight: 1.16 ± 0.55 g
  Body weight (g) end: 24.8 ± 1.5 g
  Body weight (g) start: 20.8 ± 1.2 g
  TGI (%): 65.4%
[2]; [6]
  Tumor weight: 0.70 ± 0.45 g
  Body weight (g) end: 23.6 ± 1.5 g
  Body weight (g) start: 20.4 ± 1.6 g
  TGI (%): 79.2%
[2]; [7]
  Tumor weight: 0.53 ± 0.28 g
  Body weight (g) end: 21.0 ± 2.2 g
  Body weight (g) start: 20.2 ± 1.7 g
  TGI (%): 84.4%

## COc1ccc2c(Oc3ccc4c(C(=O)NCc5ccc(C(=O)Nc6ccccc6N)cc5)cccc4c3)ccnc2c1 [Compound 33, N-(4-((2-aminophenyl)carbamoyl)benzyl)-6-(7-methoxyquinolin-4-yloxy)-1-naphthamide]
Human HCT-8 colon cancer [3]; [10]
  Tumor weight: 0.73 ± 0.36 g
  Body weight (g) end: 22.6 ± 1.6 g
  Body weight (g) start: 21.1 ± 1.2 g
  TGI (%): 88.1%
Human HCT-8 colon cancer [3]; [11]
  Tumor weight: 0.45 ± 0.05 g
  Body weight (g) end: 19.0 ± 1.8 g
  Body weight (g) start: 20.1 ± 0.9 g
  TGI (%): 92.6%
[4]; [12]
  Tumor weight: 1.63 ± 0.47 g
  Body weight (g) end: 24.0 ± 1.7 g
  Body weight (g) start: 20.8 ± 0.5 g
  TGI (%): 27.8%
[4]; [13]
  Tumor weight: 1.48 ± 0.89 g
  Body weight (g) end: 25.4 ± 2.8 g
  Body weight (g) start: 21.4 ± 1.3 g
  TGI (%): 34.4%
